Patent publication US7531195B2, “Schisandrin B preparation” (priority 2005, dated 2009)

Experiments:
[1] = tested on: mitochondria of brain, heart, liver and skeletal muscle; assay: Mitochondrial antioxidant status in various tissues of young female rats; assay type: in vivo, rat; conditions: (−) Sch B, α-LA, α-Toc at daily 10, 5 and 70 mg/kg respectively, 15 days
Method: The dosages were determined with reference to the equivalent amount of crude herb prescribed for human or the daily recommended intake in health supplements. The control animals received olive oil only. Twenty-four hours after the last dose, the pentobarbital-anesthetized animals were sacrificed by cardiac excision, and brain. heart, liver and skeletal muscle tissues were obtained. Tissue samples (brain, heart, liver, and skeletal muscle) were rinsed with ice-cold isotonic buffer (50 mM Tris, 0.32 M sucrose, 1 mM Na2EDTA, 0.2 mg/ml soybean trypsin inhibitor, 0.2 mg/ml bacitracine, 0.16 mg/ml benzamidine). Tissue homogenates were prepared by homogenizing 0.8 g of myocardial tissue in 8 ml ice-cold isotonic buffer and the homogenates were used for the preparation of mitochondrial fractions by differential centrifugation, as described in Chiu and Ko (2004). The mitochondrial pellets were resuspended in 1.5 ml of isotonic buffer containing 150 μl of 2 mg/ml soybean trypsin inhibitor and constituted the mitochondrial fractions. […] (St. Louis, Mo., USA). […] Aliquots (400 μl) of mitochondrial fractions were mixed with 933 μl Triton X-100 solution (0.3%, v/v, in isotonic buffer) and sonicated for 2 min on ice. The mixtures were then subjected to measurements of mitochondrial glutathione reductase (GRD), Se-glutathione peroxidase (GPX) and glutathione S-transferases (GST) activities by spectrophotometric methods, as described in Chiu et al. (2002).

[2] = tested on: mitochondria of brain, heart, liver and skeletal muscle; assay: Ca2+-induced mitochondrial permeability transition (MPT) in tissues of young adult and middle-aged rats; assay type: in vivo, rat
Method: Young adult (8-10 week-old) and middle-aged (12-14 month-old retired breeder) female Sprague-Dawley rats were maintained under a 12-h dark/light cycle at about 22° C. and allowed food and water ad libitum. Experimental protocols were approved by the Research Practice Committee at the Hong Kong University of Science & Technology, Hong Kong. Animals were randomly divided into groups, with 5 animals in each. In the treatment groups, rats were intragastrically administered with Sch B (dissolved/suspended in olive oil) at a daily dose of 10 mg/kg for 15 days. The daily dose is approximated to 1.14 mg/kg for humans after adjusting the inter-species difference in drug distribution in the body. Untreated control animals received olive oil only. Twenty-four hours after the last dosing, animals were sacrificed by decapitation and the whole brain, heart ventricular, liver and skeletal muscle (hind limb) tissues were excised and subjected to biochemical analysis. […]
Tissue homogenates were prepared as described above. […] An aliquot (1.6 ml) of mitochondrial sample (0.5 mg protein/ml) was prepared by mixing mitochondrial fraction with incubation buffer (125 mM sucrose, 65 mM KCl, 10 mM Hepes, pH 7.2, 5 mM succinate (freshly prepared) and 5 μM rotenone (freshly prepared). Aliquots (200 μl) of mitochondrial sample were mixed with 10 μl of cyclosporin A (5 μM in 0.5% ethanol final concentration) or incubation buffer. The mixtures were incubated at 30° C. for 5 min. An aliquot (10 μl) of calcium chloride solution (1 μM final concentration) was then added, and the mixtures were incubated at 30° C. for 5 min. Aliquots (180 μl) of the mixtures were added into 96-well micro-titer plate, and the initial absorbance of the mixtures at 520 nm was monitored for 5 min at 30° C. The swelling reaction was then started by adding 20 μl of K3PO4 (0.5 mM, pH 7.2), and the absorbance at 520 nm of the reaction mixtures was read every 2 min for 30 min at 30° C., using Victor V^2 Multi-Label Counter. […]

Work on `COc1cc2c(c(OC)c1OC)-c1c(cc3c(c1OC)OCO3)CC(C)C(C)C2` (single isomer, unassigned; (-)) [(−) Sch B, (−) Schisandrin B] yielded a GPX ([1]; BRAIN) of 163 ± 9 percent control, a GRD ([1]; BRAIN) of 150 ± 9 percent control and a GSH ([1]; BRAIN) of 147 ± 4 percent control. The GST ([1]; BRAIN) was 143 ± 4 percent control, the α-Toc level ([1]; BRAIN) was 141 ± 7 percent control and the GPX ([1]; HEART) was 143 ± 7 percent control. It also gave a GRD ([1]; HEART) of 163 ± 6 percent control, a GSH ([1]; HEART) of 159 ± 2 percent control and a GST ([1]; HEART) of 161 ± 5 percent control. The α-Toc level ([1]; HEART) was 160 ± 13 percent control, the GPX ([1]; LIVER) was 135 ± 3 percent control and the GRD ([1]; LIVER) was 161 ± 10 percent control. For the same molecule, the GSH ([1]; LIVER) was 175 ± 5 percent control, the GST ([1]; LIVER) was 154 ± 4 percent control and the α-Toc level ([1]; LIVER) was 167 ± 14 percent control. For the same molecule, the GPX ([1]; SKELETAL MUSCLE) was 125 ± 5 percent control, the GRD ([1]; SKELETAL MUSCLE) was 166 ± 4 percent control and the GSH ([1]; SKELETAL MUSCLE) was 137 ± 1 percent control. For the same molecule, the GST ([1]; SKELETAL MUSCLE) was 171 ± 10 percent control, the α-Toc level ([1]; SKELETAL MUSCLE) was 178 ± 13 percent control and the “extent of inhibition of sensitivity to Ca2+-induced MPT” value ([2]; middle-aged rats, all tissues except liver, range among tissues) was 15-29%. For the same molecule, the “sensitivity to Ca2+-induced MPT in liver” value ([2]; middle-aged rats, liver) was “did not show detectable change” and the “decrease of sensitivity to Ca2+-induced MPT” value ([2]; young adult rat tissues, 10 mg/kg/day x 15, range among tissues) was 15-48%.
